pIC50: −log10 of the molar value. Values after ≈ are worked out from the molar mass of the structure shown. Values joined by “and” are separate entries in the source; they are usually repeats but may differ in a detail not shown here. Identical values can stand only once. Like-named read-outs stand apart in the source and are kept apart here.
Key:
[1] = target: T1, full-length beta-Catenin (Uniprot ID P35222) (Homo sapiens, UniProt P35222); test: Fluorescence polarization IC50 (beta-catenin / 5FAM-TCF4 10-53 competition); format: binding; conditions: read-out: beta-Catenin FP IC50
T1 construct: 10 nM full-length beta-Catenin (Uniprot ID P35222)
T1 sequence (P35222 1-781): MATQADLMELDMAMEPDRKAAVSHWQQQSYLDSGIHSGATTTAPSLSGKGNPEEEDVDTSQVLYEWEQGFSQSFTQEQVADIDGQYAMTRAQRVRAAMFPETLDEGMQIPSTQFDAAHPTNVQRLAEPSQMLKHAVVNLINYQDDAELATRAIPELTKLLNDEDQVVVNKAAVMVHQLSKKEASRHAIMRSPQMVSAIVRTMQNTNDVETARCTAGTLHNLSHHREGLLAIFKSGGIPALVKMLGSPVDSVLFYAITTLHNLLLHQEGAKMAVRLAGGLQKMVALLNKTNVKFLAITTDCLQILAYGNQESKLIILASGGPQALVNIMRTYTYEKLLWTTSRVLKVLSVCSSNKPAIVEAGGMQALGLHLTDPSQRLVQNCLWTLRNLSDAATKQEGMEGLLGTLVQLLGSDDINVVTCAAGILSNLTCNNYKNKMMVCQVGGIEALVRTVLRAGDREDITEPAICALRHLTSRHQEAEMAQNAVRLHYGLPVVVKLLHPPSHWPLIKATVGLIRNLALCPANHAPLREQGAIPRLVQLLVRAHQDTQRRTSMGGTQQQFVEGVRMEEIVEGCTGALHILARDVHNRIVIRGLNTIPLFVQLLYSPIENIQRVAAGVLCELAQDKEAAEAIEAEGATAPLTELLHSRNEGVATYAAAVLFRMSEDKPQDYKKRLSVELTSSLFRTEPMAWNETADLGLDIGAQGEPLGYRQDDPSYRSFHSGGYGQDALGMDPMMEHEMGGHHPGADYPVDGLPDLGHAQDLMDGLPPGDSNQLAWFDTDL

CHI Log D procedure = format: physicochemical; conditions: pH 7.4, CHI Log D
Solubility in PBS = format: physicochemical; conditions: Solubility (uM)
How it was run: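 The PBS solution was ultracentrifuged and the supernatant analyzed by HPLC. Its peak area was divided by that of a 50 μM peptide DMSO reference injection and multiplied by 50 uM to give solubility.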

[2] = target: T2, beta-catenin/TCF4 engagement (Homo sapiens, UniProt P35222); test: Nano-BRET target engagement assay (B-cat-Halo & TCF4-Luc in HEK293 cells); format: cell-based
T2 construct: expressed in transfected cells; host or cells: HEK293
T2 sequence (P35222 1-781): T1 sequence (P35222 1-781)

[3] = tested on: TCF/LEF luciferase Reporter in DLD1 cells; test: TCF reporter assay (DLD1 TCF/LEF luciferase reporter, Bright-Glo); format: cell-based; conditions: for DLD1 TCF c2 BrightGlo % Inhibition: replicates
How it was run: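 DLD1 cells stably carrying a TCF/LEF luciferase reporter were plated at 5000 cells/well in RPMI + 4% FBS and treated overnight with a 1:2 compound dilution series. Bright-Glo luminescence read on day 3; viability by CellTiter-Glo. Absolute IC50 determined.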

[4] = absolute IC50, read-out: NanoBRET Abs IC50
[5] = absolute IC50, read-out: DLD1 reporter assay Abs IC50
[6] = read-out: DLD1 4% Abs IC50, DLD1 4%

Work on `CC(=O)N1CCC[C@]12CC=CCCCC1(CCCC=CCCCOC(=O)N3CC[C@@](C(=O)N[C@@H](Cc4ccccc4Cl)C(=O)N[C@@H](Cc4csc5ccccc45)C(=O)N[C@H](CO)CC(C)C)(C3)NC(=O)[C@H](CC(N)=O)NC(=O)[C@H](Cc3ccccc3)NC(=O)[C@H](C)NC(=O)[C@H](C)NC(=O)[C@H](CC(=O)O)NC(=O)[C@H](CC(=O)O)NC1=O)NC(=O)[C@H](CC(C)(C)C)NC(=O)[C@H](CC(=O)O)NC2=O` (stereo partly drawn) [I-1080, Ac-PL3-Asp-Npg-B5-Asp-Asp-Ala-Ala-Phe-Asn-PyrS2-2C1F-BztA-Leuo1] yielded a pIC50 [1] of 8.22, a chromatographic logD (CHI Log D procedure) of 2.59 and a Solubility (Solubility in PBS) of 47 µM (≈ 90.2 µg/mL). The pIC50 [2, 4] was less than 4.70, the pIC50 [3, 5] was 4.76 and the “DLD1 TCF c2 BrightGlo % Inhibition” value ([3]; first dose = 20 uM (plate map), 20 µM) was 51.4% and 56.9% and 51.8%. The pIC50 [3, 6] was 4.98, the “DLD1 TCF c2 BrightGlo % Inhibition” value ([3]; 0.625 µM) was 20.2% and 13.7% and 15.3% and the “DLD1 TCF c2 BrightGlo % Inhibition” value ([3]; 1.25 µM) was 16.0% and 13.8% and 12.3%. For the same compound, the “DLD1 TCF c2 BrightGlo % Inhibition” value ([3]; 2.5 µM) was 14.6% and 19.8% and 7.9%, the “DLD1 TCF c2 BrightGlo % Inhibition” value ([3]; 10 µM) was 42.4% and 42.2% and 38.1% and the “DLD1 TCF c2 BrightGlo % Inhibition” value ([3]; third dose = 5 uM (plate map), 5 µM) was 24.9% and 31.0% and 24.4%.
In the case of `CC(=O)N1CCC[C@]12CC=CCCCC1(CCCC=CCCCOC(=O)N3CC[C@@](C(=O)N[C@@H](Cc4ccsc4)C(=O)N[C@@H](Cc4csc5ccccc45)C(=O)N[C@@H](CCC(N)=O)C(N)=O)(C3)NC(=O)[C@H]([C@@H](C)O)NC(=O)[C@H](Cc3ccccc3)NC(=O)[C@H](C)NC(=O)[C@H](C)NC(=O)[C@H](CC(=O)O)NC(=O)[C@H](CC(=O)O)NC1=O)NC(=O)[C@H](CC(C)(C)C)NC(=O)[C@H](CC(=O)O)NC2=O` (stereo partly drawn) [I-809, Ac-PL3-Asp-Npg-B5-Asp-Asp-Ala-Ala-Phe-Thr-PyrS2-3Thi-BztA-Gln-NH2], the pIC50 [1] was 8.30, the chromatographic logD (CHI Log D procedure) was 2.1 and the Solubility (Solubility in PBS) was 36 µM (≈ 68.6 µg/mL). The pIC50 ([2]; read-out: NanoBRET Abs IC50) was 5.21, the pIC50 ([2]; read-out: NanoBRET IC50) was 4.93 and the pIC50 [3, 6] was 4.95.
`CC(=O)N1CCC[C@]12CC=CCCCC1(CCCC=CCCCOC(=O)N3CC[C@@](C(=O)N[C@@H](Cc4ccccc4Cl)C(=O)N[C@@H](Cc4csc5ccccc45)C(=O)N[C@@H](CCC(N)=O)C(N)=O)(C3)NC(=O)[C@H](CC(N)=O)NC(=O)[C@H](Cc3ccccc3)NC(=O)[C@H](C)NC(=O)[C@H](CCCCN)NC(=O)[C@H](CN(CC(=O)O)CC(F)(F)F)NC(=O)[C@H](CC(=O)O)NC1=O)NC(=O)[C@H](CC(C)(C)C)NC(=O)[C@H](CC(=O)O)NC2=O` (stereo partly drawn) [I-1011, Ac-PL3-Asp-Npg-B5-Asp-TfeGA-Lys-Ala-Phe-Asn-PyrS2-2C1F-BztA-Gln-NH2] gave a pIC50 [1] of 8.30, a chromatographic logD (CHI Log D procedure) of 2.03 and a Solubility (Solubility in PBS) of 23 µM (≈ 48.6 µg/mL). It also gave a pIC50 [2, 4] of 4.68 and a pIC50 [3, 5] of less than 4.70.
Compound `CC(=O)N1CCC[C@]12CC=CCCCC1(CCCC=CCCCOC(=O)N3CC[C@@](C(=O)N[C@@H](Cc4ccccc4Cl)C(=O)N[C@@H](Cc4csc5ccccc45)C(=O)N[C@@H](C(N)=O)[C@H](C)O)(C3)NC(=O)[C@H](Cc3ccccc3)NC(=O)[C@H](Cc3ccccc3)NC(=O)[C@H](C)NC(=O)[C@H](C)NC(=O)[C@H](CC(=O)O)NC(=O)[C@H](CC(=O)O)NC1=O)NC(=O)[C@H](CC(C)(C)C)NC(=O)[C@H](CC(=O)O)NC2=O` (stereo partly drawn) [I-1034, Ac-PL3-Asp-Npg-B5-Asp-Asp-Ala-Ala-Phe-Phe-PyrS2-2C1F-BztA-dThr-NH2] has a pIC50 [1] of 7.57, a chromatographic logD (CHI Log D procedure) of 2.71 and a Solubility (Solubility in PBS) of 12 µM (≈ 23.4 µg/mL). The pIC50 [2, 4] was 5.02, the pIC50 [3, 5] was 4.92 and the pIC50 [3, 6] was 5.40.
